Earlier results in US6372423B1, “Method for stabilizing platelets” (Dade Behring Marburg GmbH, priority 1996, dated 2002).
Structures can show the parent of a compound that is named as a salt.

Conditions: intravenous administration of 0.8 mg per kg and hour

In the case of `CCN(CCO)CCCC(C)Nc1ccnc2cc(Cl)ccc12` (stereo not shown) [hydroxychloroquine sulfate], the Toxicological assessment is given as “toxicologically harmless”.
